Results taken from the METLIN SMRT retention time set (Domingo-Almenara et al. 2019).

experiment: gradient 5% acetonitrile 3 min, to 50% in 2 min, to 85% in 15 min, held 3 min, 100 µL/min; conditions: column: Zorbax Extend-C18 2.1 x 50 mm; eluents: water / acetonitrile, 0.1% formic acid
Method in brief: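 A Zorbax Extend-C18 column (2.1 × 50 mm, 1.8 μm) run at 100 μL/min with water and acetonitrile, both containing 0.1% formic acid, separated mixtures of ~100 pure standards. The HPLC was coupled to a quadrupole time-of-flight mass spectrometer operated in positive and negative ionization mode, with dead and dwell volumes of 40 μL and 900 μL. Each retention time was taken from a computationally picked adduct peak that was then manually inspected.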

SMILES | RP-LC retention time [s]
CCc1ccc(CNC(=O)C2CCN(Cc3cn(C)c4ccc(Cl)cc34)CC2)cc1 | 793
CCCNc1cc(N2CCC(CCC(=O)NCc3ccc(N4CCOCC4)cc3)CC2)ncn1 | 631
Cc1cccc(NC(=O)c2cc(C(C)C)n3nccc3n2)c1 | 1160
CCOc1ccccc1CNC(=O)C1CCN(Cc2cn(C)c3ccc(Cl)cc23)CC1 | 751
CCN1CCN(Cc2nc(-c3ccc(N(C)Cc4ccccc4)nc3)no2)CC1 | 892
O=C1c2ccccc2S(=O)(=O)N1CC(O)COc1ccc(Cl)cc1Cl (stereo not given) | 900
COc1ccc(NC(=O)N2CCCC(C)(C(=O)NCc3ccccc3)C2)cc1 (stereo not given) | 828
COc1ncc(C(=O)NCc2ccc(C(F)(F)F)cc2)cn1 | 773
Cc1ccc(NC(=O)N2CCN(c3cnn4cnnc4c3)CC2)cc1 | 627
COc1ccc(Cl)cc1NC(=O)Cn1ncc2c(N3CCN(c4ccccn4)CC3)ncnc21 | 642
CCc1ccc(NC(=O)N2CCN(c3cnn4c(C)nnc4c3)CC2)cc1 | 649
CC(C)n1cnc(S(=O)(=O)N2CCC(C(=O)Nc3ccc(Br)cc3F)CC2)c1 | 834
O=C(c1cccn2c(=O)c3c4c(sc3nc12)CCCC4)N1CCN(c2ccccn2)CC1 | 656
Cc1ccc(S(=O)(=O)N2c3ccccc3NC3=C(C(=O)CCC3)C2c2ccco2)cc1 (stereo not given) | 837
Cc1cc(C)cc(N2CCC(NC(=O)NCc3cccc(F)c3)C2=O)c1 (stereo not given) | 851
O=C(CN1CCc2[nH]c3c(F)ccc(F)c3c(=O)c2C1)Nc1ccccc1Cl | 953
CCCNC(=O)Cn1c(C)cc(=O)n2nc(-c3ccc(Cl)cc3)nc12 | 871
O=C(NCc1ccc2c(c1)OCO2)c1ccc2c(c1)CC(=O)N2Cc1ccc(F)cc1 | 847
CCOc1ccccc1NC(=O)N1CCC(n2cnc3cc(Cl)ccc3c2=O)CC1 | 935
CCOC(=O)c1c(-c2ccccc2)csc1NC(=O)c1ccccc1C(=O)O | 963
CN(CCCNC(=O)C1CCc2nc(N3CCCC3)ncc2C1)c1ccccc1 (stereo not given) | 560
O=C(NCCCN1CCOCC1)c1c(O)c2cccc3c2n(c1=O)CC3 | 845
COC(=O)C1=CN(c2cc(OC)ccc2OC)c2cc(F)ccc2S1(=O)=O | 819

SMILES | RP-LC retention time [s]
Cc1cccc(NC(=O)Nc2ccc3nncn3c2)c1 | 690
CCc1ccc(NC(=O)Cn2c(N3CCCC3)nc(C)cc2=O)cc1 | 699
CCOc1ccc(CNC(=O)C2CCN(c3cnc4nccnc4c3)CC2)cc1 | 698
O=C(Nc1ccc(Cl)cc1F)NC1CCN(c2cc(N3CCOCC3)cnn2)C1 (stereo not given) | 649
Clc1ccccc1-c1nc(N2CCCC2)c2ccccc2n1 | 696
CCOc1ccc(-c2csc(Cc3nc(-c4ccccc4C)no3)n2)cc1 | 1310
CCN(CC)S(=O)(=O)c1ccc2c(c1)N(CC(=O)NCCc1cnc[nH]1)C(=O)C1CCCCN21 (stereo not given) | 655
O=C(C1CCC1)N1CCCC(OCc2nc(-c3ccncc3)no2)C1 (stereo not given) | 713
Cc1ccn2c(NC(=O)C(C)(C)C)c(-c3ccc(F)cc3)nc2c1 | 648
Cc1cc(Cl)ccc1NC(=O)N1C[C@@H]2C[C@H]1C[C@@H]2NS(=O)(=O)c1ccccc1 | 883
CCCNC(=O)C1CCCN(c2nc3ncn(CC(=O)NCc4ccccc4)c(=O)c3s2)C1 (stereo not given) | 669
COc1ccc(-c2cc3n(n2)CCCN(C(=O)c2cccnc2SC)C3)cc1 | 788
CC1Cc2ccccc2N1C(=O)c1ccc(Cl)cc1 (stereo not given) | 972
O=C(CSc1nc2ccccc2s1)OCc1cc(-c2ccco2)on1 | 1010
CC(C)Cn1c(=O)c(N2CCN(C(=O)Cc3cccs3)CC2)nc2ccncc21 | 592
Cc1cccc(OCCc2noc(C3CN(Cc4ccc(C)s4)C3)n2)c1 | 761
O=C(CNC(=O)c1cc(F)cc(F)c1)Nc1nc2ccccc2[nH]1 | 642
COc1ccccc1-c1nnc(-c2ccc(C)c(S(=O)(=O)N3CCC(C)CC3)c2)o1 | 1150
CCNC(=O)c1nn(-c2ccc(OC)c(OC)c2)c(OC)cc1=O | 626
O=C(Cn1c(C(F)(F)F)nc2cc3c(cc21)OCCO3)NCc1ccc2c(c1)OCCCO2 | 818
O=C(Nc1cccc([N+](=O)[O-])c1)N1CCN(c2ccccc2)CC1 | 829
COc1ccc(Nc2cc(C(=O)N3CCCCC3)nc3c(OC)cccc23)cc1OC | 570
O=C(NCc1ccco1)c1ncoc1-c1ccccc1C(=O)N1CCCC1 | 711

SMILES | RP-LC retention time [s]
CSc1ccc(NC(=O)c2cc3c(s2)CN(C2CC2)C3)cc1 | 644
CC(C)CNC(=O)CN1CCN(Cc2ccc(F)cc2Cl)C1=O | 790
O=C(N[C@@H]1CN(c2ncccn2)C[C@H]1CO)C1(c2ccccc2)CC1 | 654
COc1ccc(Cl)cc1S(=O)(=O)N1CCC(n2cnnc2C)CC1 | 684
CCN(CCNS(=O)(=O)c1ccc2c(c1)CCCC(=O)N2)Cc1ccccc1 | 608
Cc1ccsc1C(=O)N1CCC(n2cnnc2-c2ccccc2)C1 (stereo not given) | 662
CC(C)c1noc(-c2ccnc(-n3cnc(C(=O)N4CCCC4)c3)c2)n1 | 616
CCOC(=O)c1cnc(N2CCN(Cc3ccc4c(c3)OCO4)CC2)[nH]c1=O | 605
CC(C)CCN1CCC(N2CCN(C(=O)c3cccs3)CC2)C1=O (stereo not given) | 567
CCOC(=O)N1CCc2nc(NC(=O)c3ccc([N+](=O)[O-])s3)sc2C1 | 792
CCCCn1cc(S(=O)(=O)Nc2ccccc2F)c2cccnc21 | 922
O=C(CN1CCc2ccccc2C1C(=O)N1CCCCC1)NCc1ccccn1 (stereo not given) | 755
COc1ccc(NC(=O)CN2C(=O)NC3(CCC(C)CC3)C2=O)c(OC)c1 (stereo not given) | 827
c1cncc(-c2n[nH]c(C3CCCCN3)n2)c1 (stereo not given) | 555
O=c1c2cnc3nc(-c4ccccc4)nn3c2ccn1CCc1c[nH]c2ccccc12 | 925
CCN(CC)S(=O)(=O)c1ccc2c(c1)CC(C(=O)NCCC(C)C)N2C(C)=O (stereo not given) | 848
COc1cc(C(=O)N2CCC3(CC2)NC(=O)c2ccc(Cl)cc2N3)cc(OC)c1OC | 721
COc1cccc(C(=O)N2CCC(Oc3nc4c(C)ccc(C)c4s3)CC2)c1OC | 1220
Cc1cc(C)n2nc(SCC(=O)NC(C)C)nc2n1 | 613
CC1=C(c2ccc(C)cc2)S(=O)(=O)N=C1N1CCCN(C(=O)c2cccc(F)c2)CC1 | 859
CCCOCCOC(=O)C1=C(C)NC2=C(C(=O)C(C(=O)OC)C(C)C2)C1c1ccccc1F (stereo not given) | 946
CCCOc1ccc(C(=O)Nc2nnc(SCc3nnc(-c4ccccc4C)o3)s2)cc1 | 1110
CCN(CC)C(=O)CSc1c(C)cnc2c1c(=O)n(C)c(=O)n2C | 752

SMILES | RP-LC retention time [s]
CC1Cc2ccccc2N1C(=O)Cc1csc2nc(-c3ccccc3)cn12 (stereo not given) | 881
Cn1cc(C2=CCN(S(=O)(=O)c3ccc(F)c(F)c3)CC2)c2cccnc21 | 981
O=C(Cc1nnc(-c2cccc(Br)c2)o1)NCc1ccc(F)cc1Cl | 869
CCC(=O)N(C1CCOCC1)C1CCN(S(=O)(=O)c2ccc(Cl)cc2)CC1 | 886
O=C(c1cc(-c2ccco2)on1)N1CCCC(c2nnc(-c3ccccc3F)s2)C1 (stereo not given) | 923
COC(=O)c1cncn1C(C)c1ccccc1 (stereo not given) | 737
O=C(Cc1csc(NC(=O)NC2CCCCC2)n1)NCCc1ccc(Cl)cc1 | 805
Cc1ccc(S(=O)(=O)N2CCC(C)(C(=O)NCc3ccccc3C)CC2)c(C)c1 | 1040
O=C(c1ccc(F)cc1F)N1CCN(c2cc(-c3ccc(F)cc3)[nH]n2)CC1 | 736
O=C(Nc1cc(-c2ccco2)nn1CCO)c1ccc(S(=O)(=O)N2CCOCC2)cc1 | 622
Cc1cc(C(=O)N2CCCC2Cc2noc(C3CCCC3)n2)n[nH]1 (stereo not given) | 750
Cc1noc2nc(CCC(=O)NCCCc3ccccc3)nc(N3CCOCC3)c12 | 760
CCn1cc(S(=O)(=O)CC(=O)Nc2ccc3c(c2)OCO3)c2ccccc21 | 754
CCC(=O)N(C1CCOCC1)C1CCN(S(=O)(=O)c2ccc(CC)cc2)CC1 | 908
O=c1[nH]c2cc(Br)cnc2[nH]c1=O | 553
CC(C)CC(=O)Nc1ccc(-n2cnc(C(=O)N3CCCC(C)C3)c2)nc1 (stereo not given) | 756
COc1nn(C)cc1C(=O)Nc1ccc(-c2cn3ccsc3n2)cc1 | 575
Cc1cc2c(cc1S(=O)(=O)N1CCC(C(=O)NCc3ccccc3Cl)CC1)OCC(=O)N2 | 789
COc1ccc(NC(=O)C2CCc3nc(N4CCOCC4)ncc3C2)c(C)c1 (stereo not given) | 702
COc1ccccc1Cc1nc(-c2cn(-c3ccc(F)cc3)nn2)no1 | 1020
O=C(NCc1ccc2c(c1)OCO2)C1=C2CCCN2c2ccccc2S1(=O)=O | 805
